Reference: paper PMC11477000, “Enantioselective Binding of Proton Pump Inhibitors to Alpha1-Acid Glycoprotein and Human Serum Albumin—A Chromatographic, Spectroscopic, and In Silico Study” (International Journal of Molecular Sciences, 2024)

Legend:
[1] = biological target: T1, human serum albumin (HSA) (Homo sapiens, UniProt P02768); test: HPLC on HSA-based chiral stationary phase (Daicel Chiralpak HSA column); type: binding; conditions: HSA column, 25 °C
Method: HPLC using a protein-based chiral stationary phase is a fully automated method for obtaining rapid information about the binding of compounds to the respective proteins. Enantioseparation occurs in the case of unequal binding constants of the individual enantiomers to the immobilized proteins, thus allowing enantioselective binding to be characterized even when a racemic mixture was injected. As a preliminary step, the enantiospecific binding was investigated on columns containing AGP and HSA in various alcohol:buffer mixtures. A pH 7 phosphate buffer was employed as the aqueous part of the mobile phase, while for the organic part, three different alcohols were evaluated.
In the following step, we investigated the effect of changing some other chromatographic conditions on the protein binding. The pH of the aqueous phase influenced the protonation state of both the analyte and the proteins. It should be noted that the pH tolerance of protein-based columns is narrow due to the possible denaturation of proteins. Taking into account the guidelines of the manufacturer, three different pH values were investigated (pH 6, 6.5, and 7) at a 95:5 (v/v%) buffer:IPA eluents ratio [49]. The buffer was uniformly 10 mM phosphate. […] The effect of different buffer constituents was also evaluated. In addition to phosphate buffer, ammonium acetate, ammonium bicarbonate, and sodium citrate were tested and compared under the same conditions.
Chromatographic measurements were carried out on two separate HPLC systems. The AGP binding study was performed on a Waters 2695e chromatographic system paired with a Waters 2996 PDA detector, controlled by Empower 3 FR5 (Waters Corp., Milford, MA, USA), while the HSA binding study was performed on an Agilent 1100 HPLC system, consisting of an inline degasser (G1322A), a quaternary pump (G1311A), an automatic injector (G1329A) paired with sample thermostat (G1330A), a column thermostat (G1316A), and a diode array detector (G1315A) with Agilent Chemstation B04.03-SP2 software (Agilent, Bronnwald, Germany). For the binding studies, two protein-based chiral stationary phases were utilized. The chromatographic binding study for AGP was conducted on a ChromTech Chiral-AGP column (150 mm × 4.0 mm; ChromTech Ltd., Congleton, UK), while the binding study for HSA was performed on a Daicel Chiralpak HSA column (50 mm × 4.0 mm; Daicel Corp., Osaka, Japan). The detection wavelength was 210 nm for all measurements. The stock solutions of PPIs were prepared at a concentration of 1 mg/mL in MeOH. Subsequent dilutions were prepared using water. The injected samples were mixed and diluted from the stock solutions. The final concentration for the eutomer was 0.2 mg/mL, and for the distomer, it was 0.1 mg/mL. A volume of 2 μL was injected. To mitigate the instability of PPIs in aqueous solutions, the samples were kept at a temperature of 4 °C.

[2] = biological target: T1, human serum albumin (HSA); test: Displacement chromatography on HSA column with warfarin and ibuprofen as competitors; type: binding; conditions: IPA:10 mM pH 7 phosphate buffer 1:99, 25 °C
Method: For identification of the binding site of HSA, a displacement chromatography and fluorescence displacement study were performed. In the case of chromatography, to the mobile phase, increasing concentrations of the competitors, warfarin and ibuprofen, that are known to bind to specific binding sites on HSA, Sudlow site I and Sudlow site II, respectively, were added. In the case of the fluorescence displacement study, the fluorescence quenching data of the PPI-HSA system in the presence of warfarin and ibuprofen were investigated.
(Chromatographic parameter: Column temperature: 25 °C,
mobile phase: IPA : 10 mM pH 7 sodium phosphate buffer 1:99, flow rate: 0.7 mL/min, detection

[3] = 1% EtOH, 10 mM pH 7 phosphate buffer
[4] = 1% IPA, 10 mM pH 7 phosphate buffer
[5] = 1% MeOH, 10 mM pH 7 phosphate buffer
[6] = 2.5% EtOH, 10 mM pH 7 phosphate buffer
[7] = 2.5% IPA, 10 mM pH 7 phosphate buffer
[8] = 2.5% MeOH, 10 mM pH 7 phosphate buffer
[9] = 5% EtOH, 10 mM pH 7 phosphate buffer
[10] = 5% IPA, 10 mM pH 7 phosphate buffer
[11] = 5% MeOH, 10 mM pH 7 phosphate buffer
[12] = 7.5% EtOH, 10 mM pH 7 phosphate buffer
[13] = 7.5% IPA, 10 mM pH 7 phosphate buffer
[14] = 7.5% MeOH, 10 mM pH 7 phosphate buffer
[15] = 10% EtOH, 10 mM pH 7 phosphate buffer
[16] = 10% IPA, 10 mM pH 7 phosphate buffer
[17] = 10% MeOH, 10 mM pH 7 phosphate buffer
[18] = 12.5% IPA, 10 mM pH 7 phosphate buffer

T1 sequence (P02768 25-609): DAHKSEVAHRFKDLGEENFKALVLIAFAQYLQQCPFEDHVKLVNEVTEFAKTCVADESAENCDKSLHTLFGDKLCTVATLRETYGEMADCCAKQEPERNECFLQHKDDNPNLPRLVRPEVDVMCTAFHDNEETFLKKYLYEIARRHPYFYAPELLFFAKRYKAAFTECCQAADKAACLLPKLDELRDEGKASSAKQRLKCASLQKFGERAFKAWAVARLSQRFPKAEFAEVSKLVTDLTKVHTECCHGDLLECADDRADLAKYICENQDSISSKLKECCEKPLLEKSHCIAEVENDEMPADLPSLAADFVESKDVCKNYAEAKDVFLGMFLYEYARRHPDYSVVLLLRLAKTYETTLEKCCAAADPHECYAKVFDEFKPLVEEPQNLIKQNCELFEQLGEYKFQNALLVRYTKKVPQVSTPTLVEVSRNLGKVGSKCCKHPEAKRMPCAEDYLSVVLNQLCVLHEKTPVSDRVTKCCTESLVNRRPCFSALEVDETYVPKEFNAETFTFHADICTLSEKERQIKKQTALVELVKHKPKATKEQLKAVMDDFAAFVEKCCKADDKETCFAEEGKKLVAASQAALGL

Structure (SMILES): COCCCOc1ccnc(C[S+]([O-])c2nc3ccccc3[nH]2)c1C (stereo not drawn) [Rabeprazole, rabeprazole]
- k1 retention factor (first-eluting enantiomer) [1, 3]: 6.16
- k2 retention factor (second-eluting enantiomer) [1, 3]: 6.16
- k1 retention factor (first-eluting enantiomer) [1, 4]: 7.21
- k2 retention factor (second-eluting enantiomer) [1, 4]: 7.21
- k1 retention factor (first-eluting enantiomer) [1, 5]: 6.61
- k2 retention factor (second-eluting enantiomer) [1, 5]: 6.61
- k1 retention factor (first-eluting enantiomer) [1, 6]: 3.97
- k2 retention factor (second-eluting enantiomer) [1, 6]: 3.97
- k1 retention factor (first-eluting enantiomer) [1, 7]: 5.45
- k2 retention factor (second-eluting enantiomer) [1, 7]: 5.45
- k1 retention factor (first-eluting enantiomer) [1, 8]: 5.08
- k2 retention factor (second-eluting enantiomer) [1, 8]: 5.08
- k1 retention factor (first-eluting enantiomer) [1, 9]: 2.87
- k2 retention factor (second-eluting enantiomer) [1, 9]: 2.87
- k1 retention factor (first-eluting enantiomer) [1, 10]: 3.32
- k2 retention factor (second-eluting enantiomer) [1, 10]: 3.32
- k1 retention factor (first-eluting enantiomer) [1, 11]: 3.68
- k2 retention factor (second-eluting enantiomer) [1, 11]: 3.68
- k1 retention factor (first-eluting enantiomer) [1, 12]: 2.16
- k2 retention factor (second-eluting enantiomer) [1, 12]: 2.16
- k1 retention factor (first-eluting enantiomer) [1, 13]: 2.37
- k2 retention factor (second-eluting enantiomer) [1, 13]: 2.37
- k1 retention factor (first-eluting enantiomer) [1, 14]: 2.95
- k2 retention factor (second-eluting enantiomer) [1, 14]: 2.95
- k1 retention factor (first-eluting enantiomer) [1, 15]: 1.66
- k2 retention factor (second-eluting enantiomer) [1, 15]: 1.66
- k1 retention factor (first-eluting enantiomer) [1, 16]: 1.79
- k2 retention factor (second-eluting enantiomer) [1, 16]: 1.79
- k1 retention factor (first-eluting enantiomer) [1, 17]: 2.34
- k2 retention factor (second-eluting enantiomer) [1, 17]: 2.34
- k1 retention factor (first-eluting enantiomer) [1, 18]: 1.37
- k2 retention factor (second-eluting enantiomer) [1, 18]: 1.37
- k retention factor ([2]; ibuprofen 0 mM): 7.21
- k retention factor ([2]; ibuprofen 0.01 mM): 6.67
- k retention factor ([2]; ibuprofen 0.05 mM): 5.87
- k retention factor ([2]; ibuprofen 0.1 mM): 5.05
- k retention factor ([2]; warfarin 0 mM): 7.21
- k retention factor ([2]; warfarin 0.01 mM): 5.81
- k retention factor ([2]; warfarin 0.05 mM): 4.98
- k retention factor ([2]; warfarin 0.1 mM): 4.73

Structure (SMILES): Cc1c(OCC(F)(F)F)ccnc1C[S+]([O-])c1nc2ccccc2[nH]1 (stereo not drawn) [Lansoprazole, lansoprazole]
- EEO enantiomer elution order [1, 3]: R < S
- Rs resolution [1, 3]: 1.0
- k1 retention factor (first-eluting enantiomer) [1, 3]: 10.13
- k2 retention factor (second-eluting enantiomer) [1, 3]: 14.32
- EEO enantiomer elution order [1, 4]: R < S
- Rs resolution [1, 4]: 1.8
- k1 retention factor (first-eluting enantiomer) [1, 4]: 11.17
- k2 retention factor (second-eluting enantiomer) [1, 4]: 18.27
- EEO enantiomer elution order [1, 5]: R < S
- Rs resolution [1, 5]: 1.0
- k1 retention factor (first-eluting enantiomer) [1, 5]: 10.66
- k2 retention factor (second-eluting enantiomer) [1, 5]: 15.61
- EEO enantiomer elution order [1, 6]: R < S
- Rs resolution [1, 6]: 0.3
- k1 retention factor (first-eluting enantiomer) [1, 6]: 6.92
- k2 retention factor (second-eluting enantiomer) [1, 6]: 8.39
- EEO enantiomer elution order [1, 7]: R < S
- Rs resolution [1, 7]: 1.0
- k1 retention factor (first-eluting enantiomer) [1, 7]: 9.26
- k2 retention factor (second-eluting enantiomer) [1, 7]: 12.87
- EEO enantiomer elution order [1, 8]: R < S
- Rs resolution [1, 8]: 0.8
- k1 retention factor (first-eluting enantiomer) [1, 8]: 7.92
- k2 retention factor (second-eluting enantiomer) [1, 8]: 10.16
- k1 retention factor (first-eluting enantiomer) [1, 9]: 5.26
- k2 retention factor (second-eluting enantiomer) [1, 9]: 5.26
- EEO enantiomer elution order [1, 10]: R < S
- Rs resolution [1, 10]: 0.2
- k1 retention factor (first-eluting enantiomer) [1, 10]: 5.79
- k2 retention factor (second-eluting enantiomer) [1, 10]: 6.63
- EEO enantiomer elution order [1, 11]: R < S
- Rs resolution [1, 11]: 0.2
- k1 retention factor (first-eluting enantiomer) [1, 11]: 6.05
- k2 retention factor (second-eluting enantiomer) [1, 11]: 7.29
- k1 retention factor (first-eluting enantiomer) [1, 12]: 4.11
- k2 retention factor (second-eluting enantiomer) [1, 12]: 4.11
- k1 retention factor (first-eluting enantiomer) [1, 13]: 4.37
- k2 retention factor (second-eluting enantiomer) [1, 13]: 4.37
- k1 retention factor (first-eluting enantiomer) [1, 14]: 4.92
- k2 retention factor (second-eluting enantiomer) [1, 14]: 4.92
- k1 retention factor (first-eluting enantiomer) [1, 15]: 3.24
- k2 retention factor (second-eluting enantiomer) [1, 15]: 3.24
- k1 retention factor (first-eluting enantiomer) [1, 16]: 3.45
- k2 retention factor (second-eluting enantiomer) [1, 16]: 3.45
- k1 retention factor (first-eluting enantiomer) [1, 17]: 4.03
- k2 retention factor (second-eluting enantiomer) [1, 17]: 4.03
- k1 retention factor (first-eluting enantiomer) [1, 18]: 2.71
- k2 retention factor (second-eluting enantiomer) [1, 18]: 2.71
- Rs resolution ([1]; acetate buffer, 1% 2-propanol): 1.8
- Rs resolution ([1]; bicarbonate buffer, 1% 2-propanol): 1.2
- Rs resolution ([1]; citrate buffer, 1% 2-propanol): 1.9
- Rs resolution ([1]; phosphate buffer, 1% 2-propanol): 1.8

Structure (SMILES): COc1ccc2[nH]c([S+]([O-])Cc3ncc(C)c(OC)c3C)nc2c1 (stereo not drawn) [Omeprazole, omeprazole]
- k1 retention factor (first-eluting enantiomer) [1, 3]: 9.89
- k2 retention factor (second-eluting enantiomer) [1, 3]: 9.89
- k1 retention factor (first-eluting enantiomer) [1, 4]: 9.53
- k2 retention factor (second-eluting enantiomer) [1, 4]: 9.53
- k1 retention factor (first-eluting enantiomer) [1, 5]: 7.79
- k2 retention factor (second-eluting enantiomer) [1, 5]: 7.79
- k1 retention factor (first-eluting enantiomer) [1, 6]: 5.53
- k2 retention factor (second-eluting enantiomer) [1, 6]: 5.53
- k1 retention factor (first-eluting enantiomer) [1, 7]: 8.66
- k2 retention factor (second-eluting enantiomer) [1, 7]: 8.66
- k1 retention factor (first-eluting enantiomer) [1, 8]: 6.37
- k2 retention factor (second-eluting enantiomer) [1, 8]: 6.37
- k1 retention factor (first-eluting enantiomer) [1, 9]: 3.68
- k2 retention factor (second-eluting enantiomer) [1, 9]: 3.68
- k1 retention factor (first-eluting enantiomer) [1, 10]: 4.34
- k2 retention factor (second-eluting enantiomer) [1, 10]: 4.34
- k1 retention factor (first-eluting enantiomer) [1, 11]: 4.95
- k2 retention factor (second-eluting enantiomer) [1, 11]: 4.95
- k1 retention factor (first-eluting enantiomer) [1, 12]: 2.61
- k2 retention factor (second-eluting enantiomer) [1, 12]: 2.61
- k1 retention factor (first-eluting enantiomer) [1, 13]: 2.82
- k2 retention factor (second-eluting enantiomer) [1, 13]: 2.82
- k1 retention factor (first-eluting enantiomer) [1, 14]: 3.82
- k2 retention factor (second-eluting enantiomer) [1, 14]: 3.82
- k1 retention factor (first-eluting enantiomer) [1, 15]: 1.97
- k2 retention factor (second-eluting enantiomer) [1, 15]: 1.97
- k1 retention factor (first-eluting enantiomer) [1, 16]: 2.03
- k2 retention factor (second-eluting enantiomer) [1, 16]: 2.03
- k1 retention factor (first-eluting enantiomer) [1, 17]: 2.97
- k2 retention factor (second-eluting enantiomer) [1, 17]: 2.97
- k1 retention factor (first-eluting enantiomer) [1, 18]: 1.50
- k2 retention factor (second-eluting enantiomer) [1, 18]: 1.50
- k retention factor ([2]; ibuprofen 0 mM): 9.53
- k retention factor ([2]; ibuprofen 0.01 mM): 7.96
- k retention factor ([2]; ibuprofen 0.05 mM): 6.31
- k retention factor ([2]; ibuprofen 0.1 mM): 5.22
- k retention factor ([2]; warfarin 0 mM): 9.53
- k retention factor ([2]; warfarin 0.01 mM): 8.57
- k retention factor ([2]; warfarin 0.05 mM): 7.71
- k retention factor ([2]; warfarin 0.1 mM): 6.98
